Data as given in patent US9487794B2, “Feruloyl-CoA:monolignol transferase” (Board of Trustees of Michigan State University, priority 2010, dated 2016).

Tests used:
[1] = tested on: feruloyl-CoA:monolignol transferase (FMT); experiment: Feruloyl-CoA:monolignol transferase (FMT) enzymatic assay, substrate test with UPLC detection of product; format: biochemical, Angelica sinensis; settings: purified recombinant FMT; for product formed from CoA thioester as acyl donor: coniferyl alcohol as acyl acceptor (FIGS. 2, 6, 7); for FMT activity with monolignol as acyl acceptor: feruloyl-CoA as acyl donor (FIGS. 2, 4, 5)
Method: The feruloyl-CoA, p-coumaroyl-CoA, and caffeoyl-CoA substrates used in the FMT assay were enzymatically synthesized using the tobacco 4-coumarate-CoA-ligase (4CL) with a c-terminal HIS tag in pCRT7/CT TOPO, provided by Eran Pichersky. Following a method modified from Beuerle and Pichersky (Anal. Biochem. 302(2): 305-12 (2001)) 3.3 mg of ferulic acid, coumaric acid or caffeic acid, 2 mg coenzyme A, and 6.9 mg ATP were added to 50 mM Tris-hydrochloride pH 8 and 2.5 mM magnesium chloride in a final volume of 10 ml. The reaction was started by adding 0.25 mg 4CL, protein purified as described by the method of Beurerle and Pichershy. After a five-hour incubation at room temperature, additional 6.9 mg ATP, 2 mg coenzyme A, and 0.25 mg purified 4CL were added and the reaction was incubated overnight. The CoA esters were purified on an SPE cartridge as described in Beuerle and Pichersky (2001).
(§1) The FMT activity assay contained 100 mM MOPS pH 6.8, 1 mM dithiothreitol (DTT), 1 mM feruloyl-CoA, 1 mM coniferyl alcohol, 3.9 μg of purified FMT protein and deionized water to a volume of 50 μL. After a 30-minute incubation, 1 μL of 10 M hydrochloric acid was added to stop the reaction. Because the product synthesized in the reaction, coniferyl ferulate (CAFA), is insoluble, 50 μL of methanol was added to solubilize the CAFA. Prior to UPLC, protein and insoluble material were removed by filtering through an Amicon Ultracel 10K membrane filter (Millipore). The flow-through was analyzed using an Acquity Ultra Performance LC with an Acquity UPLC BEH C18 1.7 μm 2.1×100 mm column and the Acquity Console and Empower 2 Software, all from Waters Corporation. The solvents used in this method were solvent A, 0.1% trifluoroacetic acid, and solvent B, 100% acetonitrile. Samples were analyzed using the following gradient conditions, 13% B, for 5 minutes, 1 minute linear gradient to 42% B, held for 4 minutes, 1 minute linear gradient to 100% B, held for 1 minutes and 3 minutes at 13% B with a flow rate of 0.3 ml/minute. This method was then used to analyze a 10 μL injection of each assay reaction; standards for each of the substrates along with chemically synthesized CAFA were used to determine retention times for each compound.
Purified recombinant enzyme was assayed for FMT activity using a reaction mixture containing 2 mM coniferyl alcohol, […], 100 mM HEPES pH 7.4 and 1 mM DTT. The second most abundant BAHD acyltransferase gene when incubated with Coniferyl alcohol and feruloyl-CoA produced a compound with the retention time of authentic coniferyl ferulate (CAFA) (FIG. 2). […] The addition of methanol to 50% after stopping the enzyme with acid was required to analyze the product by UPLC. The insolubility of the product made partial purification easy as the product was separated from the substrates by centrifugation.
This partial purified product was analyzed by NMR. The identity of the product as CAFA was confirmed by ^1H-NMR (FIG. 3). The enzyme was tested with p-coumaryl alcohol (FIG. 4) and sinapyl alcohol (FIG. 5) in addition to coniferyl alcohol (FIG. 2). The enzyme is active with all three monolignols, i.e., p-coumaryl alcohol, coniferyl alcohol and sinapyl alcohol. The enzyme was tested with p-coumaroyl-CoA (FIG. 6) and caffeoyl-CoA (FIG. 7) as well as feruloyl-CoA (FIG. 2).

[2] = Solubility of the enzyme product in the aqueous assay mixture; format: physicochemical; settings: FMT reaction product; methanol to 50% needed to solubilize
Method: as §1, with “compound. […]” for “compound.”

product formed from CoA thioester as acyl donor [1]	FMT activity with monolignol as acyl acceptor [1]	Compound	further results
very little product	–	CC(C)(COP(=O)(O)OP(=O)(O)OC[C@H]1O[C@@H](n2cnc3c(N)ncnc32)[C@H](O)[C@@H]1OP(=O)(O)O)[C@@H](O)C(=O)NCCC(=O)NCCSC(=O)/C=C/c1ccc(O)c(O)c1 [caffeoyl-CoA]	–
–	active	OC/C=C/c1ccc(O)cc1 [p-coumaryl alcohol]	–

Second part, the molecule before the results:

Compound	product formed from CoA thioester as acyl donor [1]	FMT activity with monolignol as acyl acceptor [1]	further results
COc1cc(/C=C/CO)ccc1O [coniferyl alcohol]	–	active	–
COc1cc(/C=C/COC(=O)/C=C/c2ccc(O)c(OC)c2)ccc1O [coniferyl ferulate]	–	–	solubility in water [2]: mostly insoluble in water
COc1cc(/C=C/C(=O)SCCNC(=O)CCNC(=O)[C@H](O)C(C)(C)COP(=O)(O)OP(=O)(O)OC[C@H]2O[C@@H](n3cnc4c(N)ncnc43)[C@H](O)[C@@H]2OP(=O)(O)O)ccc1O [feruloyl-CoA]	substantial product	–	–
CC(C)(COP(=O)(O)OP(=O)(O)OC[C@H]1O[C@@H](n2cnc3c(N)ncnc32)[C@H](O)[C@@H]1OP(=O)(O)O)[C@@H](O)C(=O)NCCC(=O)NCCSC(=O)/C=C/c1ccc(O)cc1 [p-coumaroyl-CoA]	very little product	–	–
COc1cc(/C=C/CO)cc(OC)c1O [sinapyl alcohol]	–	active	–
